From patent US20030050237A1, “Prolonged delivery of peptides” (Scios Inc., priority 1993, published 2003)

Experiment: Insulinotropin infusion, plasma glucose levels in patients with NIDDM
Assay type: in vivo
Conditions: raising peptide around meal time alone, for periods of up to one hour

Substance: His-Asp-Glu-Phe-Glu-Arg-His-Ala-Glu-Gly-Thr-Phe-Thr-Ser-Asp-Val-Ser-Ser-Tyr-Leu-Glu-Gly-Gln-Ala-Ala-Lys-Glu-Phe-Ile-Ala-Trp-Leu-Val-Lys-Gly-Arg-Gly [GLP-1]
- glycemic control: will not adequately control the glucose levels
